# Data reported in US20170189357A1, “METHODS OF LIMITING MORBIDITY IN HEMOGLOBINOPATHIES” (DUKE UNIVERSITY, priority 2014, published 2017).
# Like-named read-outs stand apart in the source and are kept apart here.
# Tests used:
# ERK [1] = settings: 20 nM epinephrine; n=19; p<0.05
# sickle RBCs [2] = settings: 20 nM epinephrine, non-activated HUVECs
# ERK [3] = test: ERK phosphorylation in sickle RBCs exposed to hypoxia (Western blot of membrane ghosts); type: cell-based, human; settings: hypoxia 8% oxygen 2 hours
# p60-c-Src [4] = test: p60-c-Src phosphorylation in normal RBCs (Western blot); type: cell-based, human; settings: 1 μM PP1; normal RBCs by context (FIG. 10F)
# Description: (§1) FIG. 10 is a set of figures showing inhibition of Gai protein increased phosphorylation of p72^syk and p60-c-Src tyrosine kinases in intact SSRBCs. FIG. 10A-FIG. 10G show the kinase expression results for twenty μg of membrane protein ghosts (SSRBC ghosts, n=7, SS1, SS2, SS3, SS4, SS5, SS6 and SS7; and normal RBC ghosts, n=7, AA1, AA2, AA3AA4, AA5, AA6 and AA7) were used per lane. FIG. 10A-FIG. 10D show Western blots and corresponding graphs showing the kinase expression results of protein ghosts which were stained with antibodies against phosphorylated p60-c-Src [p-p60-c-Src (SS1, SS2, SS3, SS4; and AA1, AA2, AA3, AA4)] and p60-c-Src [p60-c-Src (SS1, SS2, SS3, SS4, SS5, SS6, SS7, and AA1, AA2, AA3, AA4, AA5, AA6, AA7)]; and phosphorylated p72^syk [p-Syk (SS1, SS2, SS3, SS4; and AA1, AA2, AA3, AA4)] and p72^syk[Syk (SS1, SS2, SS3, SS4, SS5, SS6, SS7; and AA1, AA2, AA3, AA4, AA5, AA6, AA7)]. Antibody against glycophorin C was used as a loading control. FIG. 10C and FIG. 10D show the quantitative analysis of the data presented as relative kinase expression [SSRBCs (n=7) and AARBCs (n=7)], and as relative kinase phosphorylation [SSRBCs (n=4) and AARBCs (n=4)]. […] Quantitative analysis of the data (normalized according to total kinase expression) is presented as fold change in p60-c-Src phosphorylation (FIG. 10E and FIG. 10F) and Syk phosphorylation (FIG. 10G). […]
# p60-c-Src [5] = test: p60-c-Src phosphorylation in SSRBCs (Western blot of membrane ghosts); type: cell-based, human; settings: 1 μM inhibitor before 1 μg/ml PTx; p<0.0001
# Description: as §1
# SSRBCs = test: SSRBC adhesion to HUVECs after PTx/CTx treatment, with or without tyrosine kinase inhibitors, intermittent flow; type: cell-based, human; settings: 1 μM inhibitor before 1 μg/ml PTx; for inhibition of the effect of PTx on sickle cell adhesion: shear stress 2 dynes/cm^2, p<0.01
# Description: FIG. 9 is a set of figures showing that activation of Gas protein increased SSRBC adhesion to endothelial cells via activation of tyrosine kinases. FIG. 9A is a schematic depiction of GPCR pathways along with inhibitors and stimuli of the kinases of these pathways regulating SSRBC adhesion. FIGS. 9B-E are a set of graphs showing adherence of RBCs which were sham-treated, or treated with Pertussis toxin (PTx) (0.5, 1 or 2 μg/ml) (FIGS. 9B-D), 1 μg/ml Cholera toxin (CTx) (FIG. 9B) or phenylarsine oxide (0.1, 10, 20, 40 and 80 μM) (FIG. 9E), or pretreated with 1 μM PP1, 1 μM PP2 or 1 μM piceatannol prior to treatment with 1 μg/ml PTx (FIG. 9C and FIG. 9D). Treated RBCs were tested for adhesion to HUVECs in intermittent flow conditions at different shear stresses. Data are presented as % adherent RBCs (FIG. 9B) or SSRBCs (FIG. 9C-FIG. 9E) at a shear stress of 2 dynes/cm^2. Each graph is representative of 3 different experiments. Error bars show standard error of the mean (SEM). *: p<0.001 compared to sham-treated RBCs; **: p<0.01 compared to PTx-treated RBCs.
# Vaso-occlusion is associated with various types of physiological stress. β2-adrenergic receptors (β2AR) stimulation with catacholamines employs both Gas and &Gai (or Ga0) pathways. We first determined the Ga, Gas and/or Gai, in sickle cell regulating tyrosine kinase activation-mediated sickle cell adhesion to endothelial cells (FIG. 9A). Sickle cells adhered to some degree to endothelial cells under intermittent flow conditions at a shear stress of 2 dynes/cm^2. (FIGS. 9B-D). […] The selective Src-family kinase inhibitors, PP1 and PP2 (FIG. 9A), and the non-receptor tyrosine kinase p72^Syk inhibitor, piceatannol (FIG. 9A), inhibited the effect of PTx on sickle cell adhesion by 67±2.7%, 64±1.7% and 60 ±5.5%, respectively (p<0.01) (FIGS. 9C and 9D).
# leukocytes = test: Leukocyte adhesion in transgenic sickle cell mice after TNFα challenge; settings: 0.025, 0.05 and 0.1 mg/kg; versus vehicle
# sickle cells = test: Hypoxia-induced sickle cell adhesion to microvascular endothelial cells, intermittent flow; type: cell-based, human; settings: hypoxia 8% O2 2 h, then RDEA119; shear stress 1-2 dynes/cm^2
# Description: Sickle cells were exposed to room air (sham) or hypoxia (H) (8% O2) for 2 h followed by treatment with RDEA119 MEK inhibitor, then washed. SSRBC adhesion to microvascular endothelial cells was tested in intermittent flow condition assays, and results are presented as % adherent SSRBCs at a shear stress of 1-2 dynes/cm^2. […] Error bars show SEM of 3 different experiments.
# One of the major pathophysiologic processes in SCD is vasoocclusion in response to hypoxia.
# murine sickle RBCs = settings: for inhibition of murine sickle RBC adhesion: versus vehicle, p<0.0001
# human normal (AA) RBCs = test: Normal human RBC adhesion in TNFα-pretreated nude mice, intravital microscopy; settings: normal human RBCs treated ex vivo
# Description: FIG. 5 is a set of photographs and graphs showing that ERK in sickle RBCs promotes vaso-occlusion in nude mice in vivo. FIG. 5A, FIG. 5B and FIG. 5C are a set of photographs showing nude mice implanted with dorsal skin-fold window chambers after injection with murine TNFα. […] Vessels without adherent cells appear gray, due to the rapidly moving of fluorescence labeled RBCs. […] FIG. 5D is a graph showing quantification of the fluorescence intensity of video frames of vessel and arteriole segments used to quantify adhesion in venules and arterioles of animals occupied by sickle RBCs (n=5 for each treatment). Adhesion of fluorescently labeled sham-treated sickle RBCs (sham-treated SS) and RDEA119-treated sickle RBCs (RDEA119-treated SS) in all vessels and arterioles recorded presented as fluorescence intensity [fluorescence unit (FU)] of adherent sickle RBCs. FIG. 5E-FIG. 5G are graphs showing the values of at least 180 segments of vessels and arterioles analyzed and averaged among groups of animals (n=5) to represent percentage of vessels occupied by adherent sickle RBCs (FIG. 5E); percentage of vessels with normal blood flow, slow blood flow and no blood flow (FIG. 5F), and percentage of normal flowing vessels (FIG. 5G). […]
# human sickle RBCs = test: Human sickle RBC adhesion and vaso-occlusion in TNFα-pretreated nude mice, intravital microscopy; settings: sickle RBCs treated ex vivo
# Description: FIG. 5 is a set of photographs and graphs showing that ERK in sickle RBCs promotes vaso-occlusion in nude mice in vivo. FIG. 5A, FIG. 5B and FIG. 5C are a set of photographs showing nude mice implanted with dorsal skin-fold window chambers after injection with murine TNFα. Four hours later, intravital microscopic observations of post-capillary venules and arterioles using 10× and 20× magnifications were conducted through the window chamber immediately after infusion of fluorescently labeled human sickle RBCs (n=5) that were sham-treated (FIG. 5A; panels 1, 2, 3 and 4) or treated with the MEK inhibitor RDEA119 (FIG. 5B panels 1, 2 and 3), or human normal (AA) RBCs (n=3) sham-treated (FIG. 5C; two panels on the left) or RDEA119-treated (FIG. 5C; 2 panels on the right). Vessels without adherent cells appear gray, due to the rapidly moving of fluorescence labeled RBCs. Adhesion of human sickle RBCs in enflamed vessels and vaso-occlusion are indicated with arrows and appear as white spots in the vessels. […] Scale bar=50 μm. FIG. 5D is a graph showing quantification of the fluorescence intensity of video frames of vessel and arteriole segments used to quantify adhesion in venules and arterioles of animals occupied by sickle RBCs (n=5 for each treatment). Adhesion of fluorescently labeled sham-treated sickle RBCs (sham-treated SS) and RDEA119-treated sickle RBCs (RDEA119-treated SS) in all vessels and arterioles recorded presented as fluorescence intensity [fluorescence unit (FU)] of adherent sickle RBCs. FIG. 5E-FIG. 5G are graphs showing the values of at least 180 segments of vessels and arterioles analyzed and averaged among groups of animals (n=5) to represent percentage of vessels occupied by adherent sickle RBCs (FIG. 5E); percentage of vessels with normal blood flow, slow blood flow and no blood flow (FIG. 5F), and percentage of normal flowing vessels (FIG. 5G). Error bars show SEM of 5 different experiments for each treatment condition, *: p<0.001 compared to sham-treated sickle RBCs regardless of the vessel diameter within the ranges specified for D, E and G. […]
# sickle RBCs [6] = test: Sickle RBC adhesion to non-activated and TNFα-activated HUVECs, intermittent flow; type: cell-based, human; settings: U0126 10 μM; TNFα-activated HUVECs; shear stress 2 dynes/cm^2; p<0.05
# neutrophils (PMNs) = settings: sickle RBCs treated with 10 μM U0126, then epinephrine; co-incubated with PMNs
# human sickle red cell = settings: systemic administration; cited from earlier work
compound,measurement,setting,value
"CNC[C@H](O)c1ccc(O)c(O)c1 [Epinephrine, epinephrine]",phosphorylation of sickle cell ERK,ERK [1],increased phosphorylation of sickle cell ERK
same,sickle cell adhesion to normal endothelial cells,sickle RBCs [2]; shear stress 2 dynes/cm^2,increased sickle cell adhesion to normal endothelial cells
O=C1Nc2ccc(I)cc2/C1=C/c1cc(Br)c(O)c(Br)c1 [GW5074],effect of hypoxia on ERK phosphorylation,ERK [3],decreased the effect of hypoxia on ERK phosphorylation
Cc1ccc(-c2nn(C(C)(C)C)c3ncnc(N)c23)cc1 [PP1],"phosphorylation of p60-c-Src, inhibitor effect",p60-c-Src [4],inhibited
same,PTx-increased p60-c-Src phosphorylation in sickle cells,p60-c-Src [5],to levels below baseline phosphorylation
same,inhibition of the effect of PTx on sickle cell adhesion,SSRBCs,67±2.7%
CC(C)(C)n1nc(-c2ccc(Cl)cc2)c2c(N)ncnc21 [PP2],PTx-increased p60-c-Src phosphorylation in sickle cells,p60-c-Src [5],to levels below baseline phosphorylation
same,inhibition of the effect of PTx on sickle cell adhesion,SSRBCs,64±1.7%
COc1cc(F)c(F)c(Nc2ccc(I)cc2F)c1NS(=O)(=O)C1(C[C@H](O)CO)CC1 [RDEA119],time to abrogation of leukocyte adhesion after administration,leukocytes,≤ 10 min
same,effect of hypoxia on sickle cell adhesion to endothelial cells,sickle cells,almost completely inhibited
same,inhibition of murine sickle RBC adhesion,murine sickle RBCs; 0.025 mg/kg infused 120 min after TNFα,76%
same,inhibition of murine sickle RBC adhesion,murine sickle RBCs; 0.05 mg/kg infused 120 min after TNFα,99%
same,inhibition of murine sickle RBC adhesion,murine sickle RBCs; 0.1 mg/kg infused 120 min after TNFα,98%
same,time to reversal of murine sickle RBC adhesion after drug administration,"murine sickle RBCs; lowest dose 0.025 mg/kg, effect sustained over time",≤ 10 min
same,vessels with restored blood flow,"murine sickle RBCs; p<0.05 for each RDEA119 dose (0.025, 0.05, 0.1 mg/kg)",57%
same,adherence of normal human RBCs in enflamed vessels,human normal (AA) RBCs,no real adherence
same,vaso-occlusion by treated sickle cells,human sickle RBCs; nude mice pretreated with TNFα,no visible vase-occlusion
same,reduction of SSRBC adhesion compared to sham-treated SSRBCs,"human sickle RBCs; nude mice pretreated with TNFα, n=5, p<0.0001",88%
same,vessels and arterioles with normal blood flow,"human sickle RBCs; nude mice, versus 50±5.5% with sham-treated cells",86±3.3%
N#CC(=C(/N)Sc1ccccc1N)/C(C#N)=C(\N)Sc1ccccc1N [U0126],effect of hypoxia on ERK phosphorylation,ERK [3],decreased the effect of hypoxia on ERK phosphorylation
same,sickle cell adhesion to TNFα-activated endothelial cells,sickle RBCs [6],reduced sickle cell adhesion
same,epinephrine-activated sickle cell adhesion,sickle RBCs [2]; U0126 10 μM,inhibited activated sickle cell adhesion
same,sickle cell-induced PMN adhesion to endothelial cells,neutrophils (PMNs),decreased sickle cell-induced PMN adhesion
CC(C)=CCCC(C)=CCCC(C)=CCSc1ccccc1C(=O)O [farnesylthiosalicylic acid],effect of hypoxia on ERK phosphorylation,ERK [3],decreased the effect of hypoxia on ERK phosphorylation
Oc1cc(O)cc(/C=C/c2ccc(O)c(O)c2)c1 [piceatannol],inhibition at 1 µM,"SSRBCs; Homo sapiens, HUVEC, shear stress 2 dynes/cm^2, p<0.01, read-out: inhibition of the effect of PTx on sickle cell adhesion",60 ± 5.5%
CC(C)NCC(O)COc1cccc2ccccc12 (centres unmarked) [propranolol],human sickle red cell adhesion and associated vasoocclusion in mice,human sickle red cell,inhibited human sickle red cell adhesion
